Reference: patent publication US20260085081A1, “PHOSPHATIDYLAMINE COMPOUNDS INCLUDING A PLURALITY OF TERTIARY AMINO GROUP STRUCTURES AND COMPOSITIONS THEREOF” (PEKING UNIVERSITY, priority 2022, published 2026)

Experiments:
[1] = test system: Fluc-mRNA (luciferase expression); experiment: In vivo transfection efficiency of Fluc-mRNA lipid nanoparticles after intramuscular injection; parameters: species or system mice; settings: for expression in vivo compared with control MC3 / enhancement of in vivo expression with respect to control MC3: DOPE group, weight ratio 10:1; for expression in vivo compared with control MC3 / in vivo transfection (expression, FIG. 5): 3 μg Fluc-mRNA/mouse; for Intramuscular injection (PL/MC3) expression strength level: ratio of expression PL/MC3; for in vivo transfection (expression, FIG. 5): weight ratio lipid nanoparticle/RNA 10:1, DOPE or DSPC group; for enhancement of in vivo expression with respect to control MC3: 3 g Fluc-mRNA/mouse
Experimental: 6 h after intramuscular injection of mRNA LNPs, mice were injected intraperitoneally with 0.2 mL […] (20 mg/mL PBS solution). After 10 min, mice were anesthetized with isoflurane in oxygen in a ventilated anesthesia room and imaged with an imaging system (IVIS, PerkinElmer), and luminescence was quantified using Living Image software (PerkinElmer).

[2] = Summary of the strongest expressions over the administration routes; settings: strongest level of the three administrations
Description: (§1) Finally, the expression levels of lipid nanoparticles with a plurality of tertiary amine groups from the embodiments of the present disclosure after intramuscular injection, white adipocyte administration, and intraperitoneal injection are summarized, and compared with lipid nanoparticles prepared from commercially available cationic lipids MC3 and SM102. […] However, the expression rates of the phosphatidylamine lipids with a plurality of tertiary amine groups from embodiments of the present disclosure are higher than that of SM102.

NIH-3T3 cells = experiment: Transfection efficiency of lipid nanoparticles in NIH-3T3 cells; assay type: cell-based, murine
Experimental: The prepared cationic compounds (PL1, PL4, PL8, PL10, PL11, PL12, PL13, PL14, PL17, PL18, PL23, PL24, PL26, PL27, PL28, PL29, PL30, PL31, PL32, PL33, PL36, PL38, PL41, PL44, PL45, PL53, PL54, PL55, PL56, PL57, PL58, PL59, PL60, PL61, PL78, PL79, PL93, PL94, PL95, PL96, PL97, PL103), DOPE/DSPC, cholesterol, and DMG-PEG2000 are prepared with ethanol in a molar ratio of 35:16:46.5:2.5 to form the ethanol phase, and RNA is formulated into the aqueous phase with 50 mM citrate buffer solution at pH=4. Lipid nanoparticles are obtained by microfluidic mixing at aqueous phase:ethanol phase=3:1 (v/v), followed by dialysis purification in PBS at pH 7.4 overnight to remove ethanol.
(§2) Determination process included: preparing a 96-well plate, inoculating cells (4000 cells/well), adding 100 μL of medium, incubating at 37° C. overnight; after 24 h, adding lipid nanoparticles diluted with medium (achieving the final concentration of RNA of 10 µg/mL), incubating at 37° C. for 24 h, and then adding 50 μL of specialized luciferase substrate to each well, followed by detection using by a microplate reader (chemiluminescence).
FIG. 1A and FIG. 1B illustrate transfection of lipid nanoparticles of a DOPE group and a DSPC group in NIH3T3 cells according to some embodiments of the present disclosure. Specifically, for compounds PL1, PL4, PL6, PL8, PL10, PL11, PL12, lipid nanoparticles are prepared by DOPE and DSPC, respectively, according to an […] (Example 44). The transfection efficiency of these two groups of lipid nanoparticles in cells is first evaluated, and murine fibroblasts NIH-3T3 are selected for incubation (Example 47), and the results are shown in FIG. 1A and FIG. 1B. […] PL10, PL11, and PL12 all include two tertiary amino groups.

white adipocyte = experiment: White adipocyte administration, expression relative to SM102; assay type: cell-based; settings: for White adipocyte administration (PL/SM102) expression strength level: ratio of expression PL/SM102
Description: as §1

most cells and tissues = settings: reported; cited from earlier work
[3] = test system: human hepatocellular carcinoma HepG2 cells; experiment: Transfection efficiency of lipid nanoparticles in HepG2 cells; assay type: cell-based
Experimental: as §2
FIG. 2A and FIG. 2B illustrate encapsulation efficiency of lipid nanoparticles and cell transfection efficiency according to some embodiments of the present disclosure. FIG. 2A is the encapsulation efficiency of lipid nanoparticles in the DOPE/DSPC groups, and FIG. 2B is the transfection efficiency in HepG2 cells. PL1, PL10, and PL12 from the DOPE group, and PL11 and PL12 from the DSPC group are selected to further explore the transfection efficiency in human hepatocellular carcinoma HepG2 cells. LNP is first prepared using microfluidic approach (Example 44) and the encapsulation efficiency of LNP is measured (Example 46), and the results are shown in FIG. 2A. […] PL10 has the best effect, which is 400-fold of that of LNPs in the control group MC3. The experiment also further illustrates that PL lipids have excellent cell transfection efficiency and stable effect in different cell lines.

adipose tissue = experiment: Intraperitoneal injection of Fluc-mRNA LNPs, expression and distribution; assay type: in vivo, mice; settings: for Intraperitoneal injection (PL/SM102) expression strength level: ratio of expression PL/SM102
Experimental: FIG. 10 illustrates the effect of Fluc-mRNA LNPs composed of different structural cationic lipids on the mRNA delivery efficiency after intraperitoneal administration according to some embodiments of the present disclosure. Targeting and expression of PL lipids on adipose tissue after intraperitoneal administration is also evaluated. […] That is to say, the PL lipid structure with the plurality of tertiary amino group structures may enhance the selective targeting of visceral adipocytes. […]
as §1

[4] = Particle size of lipid nanoparticles (dynamic light scattering); assay type: physicochemical
Experimental: The particle size of the lipid nanoparticles and the distribution (size, PDI) were determined by Malvern Zetasizer Nano ZS laser particle sizer according to dynamic light scattering (DLS). The samples were diluted 100-fold with PBS before measurement, and 1 mL was taken for measurement. The measurement was repeated three times in parallel for each sample.

[5] = Encapsulation efficiency of lipid nanoparticles (RiboGreen assay); assay type: physicochemical
Experimental: The total RNA concentration and the encapsulation efficiency were determined using a RiboGreen assay. Determination process included: taking a black 96-well plate, adding 50 μL TE buffer/Triton X to A1-A8/B1-B8, respectively (A1-A6/B1-B6 for the standard curve, A7-8/B7-8 for samples), then adding the RNA TE (Tris-EDTA) dilution solutions (2 ng/μL, 1 ng/μL, 0.5 ng/μL, 0.25 ng/μL, 0.125 ng/μL, 0 ng/μL) to the above wells A1-A6/B1-B6 as the standard curve, adding 50 μL nanoparticle dilution solution to A7-A8/B7-B8, and shaking at 37° C. for 15 min, subsequently, adding 100 μL of RiboGreen solution (diluted 400-fold with TE buffer) to each well, and shaking for 3-5 min, and detecting the fluorescence intensity of each well by a microplate reader at an excitation wavelength of 485 nm and an emission wavelength of 515 nm.

joint cavity = experiment: Intra-articular injection of Fluc-mRNA LNPs, luciferase expression in the joint cavity (IVIS); assay type: in vivo, ICR mice
Experimental: Images of luciferase expression in the joint cavity are detected with an IVIS imaging system at 6 h, 12 h, 24 h, 48 h, 72 h, and 96 h after intra-articular injection of 2 μg of Fluc-mRNA LNPs (PL10, PL14, and PL17, n=3).

| Structure (SMILES) | expression in vivo compared with control MC3 [1] | Intramuscular injection (PL/MC3) expression strength level [1] | in vivo transfection (expression, FIG. 5) [1] | Summary of the strongest expressions [2] | White adipocyte administration (PL/SM102) expression strength level (white adipocyte) | transfection efficiency relative to MC3 LNP (NIH-3T3 cells; DOPE group LNP) | Intraperitoneal injection (PL/SM102) expression strength level (adipose tissue) | other results |
| --- | --- | --- | --- | --- | --- | --- | --- | --- |
| CCCCC/C=C\C/C=C\CCCCCCCCOP(=O)(NCCN(CCCCCCCCCCCC)CCCN(C)C)OCCCC(=O)OCCCCCCCCCCC (stereo not drawn) [PL11] | close to that of MC3 | C (C: ≥0.1 and <1) | expressed | C (C: ≥0.1 and <1) | C (C: ≥0.1 and <1) |  |  | transfection efficiency relative to MC3 LNP (NIH-3T3 cells; DSPC group LNP): 3 fold |
| CCCCC/C=C\C/C=C\CCCCCCCCOP(=O)(NCCN(CCCCCCCCCC(=O)OC(CC)CCCCC)CCCN(C)C)OCCCC(=O)OCCCCCCCCCCC (stereo not drawn) [PL12] |  | A (A: ≥2) | expressed | A (A: ≥2) | D (D: <0.1) | 7 fold |  | transfection efficiency relative to MC3 LNP (NIH-3T3 cells; DSPC group LNP): 1.5 fold |
| CCCCCCCCCCCOC(=O)CCCCCN(CCO)CCCCCCCC(=O)OC(CCCCCCCC)CCCCCCCC [SM102] |  |  |  |  |  |  |  | expression compared with MC3 (most cells and tissues): at least ten-fold higher than that of MC3 |
| CCCCC/C=C\C/C=C\CCCCCCCCOP(=O)(NCCN(CCCCCCCCCCCC)CCCN(C)C)OCCCCCCCC/C=C\C/C=C\CCCCC [PL10] | better than that of control MC3 | A (A: ≥2) | expressed | A (A: ≥2) | C (C: ≥0.1 and <1) | 22 fold | D (D: <0.1) | transfection efficiency relative to LNPs of control group MC3 [3]: 400 fold; in vivo fluorescence signal ([1]; weight ratio cationic lipid/RNA 15:1, 3 μg Fluc-mRNA): no fluorescence signal; in vivo expression relative to MC3 LNP ([1]; weight ratio lipid nanoparticles/RNA 5:1, 3 μg Fluc-mRNA): 3 fold; in vivo expression relative to MC3 LNP ([1]; weight ratio lipid nanoparticles/RNA 10:1, 3 μg Fluc-mRNA): 10 fold; particle size ([4]; weight ratio lipid nanoparticle/RNA 5:1): 200 nm; particle size ([4]; weight ratio lipid nanoparticle/RNA 15:1): 150 nm; encapsulation efficiency ([5]; DOPE LNP, microfluidic preparation): around 50%; encapsulation efficiency ([5]; weight ratio cationic PL lipid/RNA 5:1 (lowest lipid)): more than 30%; encapsulation efficiency ([5]; weight ratio cationic PL lipid/RNA 15:1 (most lipid)): about 70% |
| CCCCC/C=C\C/C=C\CCCCCCCCOP(=O)(NCCCN(CCCN(CC(O)CCCCCCCCCC)CC(O)CCCCCCCCCC)CC(O)CCCCCCCCCC)OCCCCCCCC/C=C\C/C=C\CCCCC (stereo not drawn) [PL18] |  | A (A: ≥2) | expressed | A (A: ≥2) | C (C: ≥0.1 and <1) |  | D (D: <0.1) |  |
| CCCCC/C=C\C/C=C\CCCCCCCCOP(=O)(NCCCN(C)C)OCCCCCCCC/C=C\C/C=C\CCCCC [PL1] |  |  | expressed |  |  | 16 fold |  |  |
| CCCCCCCCCCCCN(CCCCCCCCCCCC)CCCN1CCN(CCCNP(=O)(OCCCCCCOC(=O)C(CCCCCC)CCCCCCCC)OCCCCCCOC(=O)C(CCCCCC)CCCCCCCC)CC1 (stereo not drawn) [PL55] | better than that of control MC3 | A (A: ≥2) | expressed | A (A: ≥2) | B (B: ≥1 and <2) |  | B (B: ≥1 and <2) | expression compared with control SM102 (adipose tissue; intraperitoneal injection): superior to that of the control SM102; enhancement of in vivo expression with respect to control MC3 [1]: an order of magnitude enhancement; expression compared with control SM102 (white adipocyte; white adipocyte administration): superior to that of the control SM102 |
| CCCCC/C=C\C/C=C\CCCCCCCCOP(=O)(NCCCN1CCN(CCCN(CCCCCCCCCCCC)CCCCCCCCCCCC)CC1)OCCCCCCCC/C=C\C/C=C\CCCCC [PL14] | better than that of control MC3 | A (A: ≥2) | expressed | A (A: ≥2) | C (C: ≥0.1 and <1) |  |  | expression efficiency after intra-articular injection (joint cavity; 2 μg Fluc-mRNA LNPs, 6 h to 96 h): higher and more long-lasting expression efficiencies compared to both PL10 and PL17 LNPs; distribution and expression outside the joint after intra-articular injection (joint cavity; liver): distributed and expressed non-specifically in the liver; enhancement of in vivo expression with respect to control MC3 [1]: an order of magnitude enhancement; nanoparticle particle size ([4]; optimized formulation: decreased proportion of PEG, increased volume of aqueous phase): around 200 nm |
